Where “and” joins values, the source holds several entries; their conditions need not be identical. Identical values can stand only once.
Test system: K24384-001-R-PDC complex spheroids, viability
Assay: Anticancer human tumor K24384-001-R-PDC patient-derived pancreatic adenocarcinoma cell line growth inhibition [GQUAD]
Settings: for viability, T/C: stronger effect = lower value
Excerpt: DNA G-quadruplex Stabilizer Agents in Combinations in Complex Spheroids
A high-throughput screen of multi-cell type tumor spheroids was designed to identify active combinations of DNA G-quadruplex stabilizer agents and targeted small molecules. Complex spheroids include a stromal component modeled by human endothelial cells (HUVEC) and fibroblasts modeled by human mesenchymal stem cells (MSCs). The concentration ranges selected for each drug and investigational agent were based upon clinically achievable concentrations if the clinical Cmax of the agent was known.
Compounds. The drugs and investigational agents: pidnarulex (CX-5461; NSC782164), APTO-253 (NSC789042), BRACO-19 (NSC847499), peposertib (NSC802822), ceralasertib (NSC780249), elimusertib (NSC800525), camonsertib (NSC841442), AZD-1390 (NSC803789), olaparib (NSC753686), talazoparib (NSC767125), ART-558 (NSC835418), sotorasib (NSC818433), MRTX-1133 (NSC836407), SN-38 (NSC673596), topotecan (NSC609699), etoposide (NSC141540), doxorubicin (NSC123127), gemcitabine (NSC613327), 5-fluorouracil (NSC19893), paclitaxel (NSC125973), vemurafenib (NSC761431), panobinostat (NSC761190), R-306465 (JNJ-16241199; NSC773264), adavosertib (NSC754352), TP-3654 (NSC805149), carboplatin (NSC241240), KSQ-4279 (NSC840948), and staurosporine (NSC755774) were obtained from the National Cancer Institute (NCI) Developmental Therapeutics Program Chemical Repository (34). The FDA-approved anticancer drug set is available from the NCI Developmental Therapeutics Program. […] The stock solutions were prepared in dimethyl sulfoxide (DMSO, Sigma-Aldrich, St. Louis, MO, cat. D2650) at 800-fold the tested concentration and stored at -70 degrees C prior to their use. All drugs and investigational agents were tested over a range starting from a high concentration at or near the clinical Cmax and decreasing in half-log increments. If the clinical Cmax for an agent had not been determined, the highest concentration tested was 10 microM.
2.3 Cell Culture. All cells were maintained in an incubator at 37 degrees C and 5% CO2 with 95% humidity. The PDC lines were cultured according to standard operating procedures established by the NCI PDMR. All PDCs were thawed and cultured in Matrigel-coated flasks prepared with a working solution of 1X Ham's F-12 nutrient mix, without supplementation (Invitrogen, cat. 11765054), 100 U/mL penicillin-streptomycin (Invitrogen, cat. 15140122), and 2.5% Matrigel (Corning Inc., cat. 354248) for the first three passages. The 857933-349-R-J2-PDC line was cultured in 6C/Colon 1B media, which includes advanced DMEM/F-12 (Thermo Fisher Scientific, cat. 12634028), 10 mM HEPES (Thermo Fisher Scientific, cat. 15630080), 1X GlutaMAX supplement (Thermo Fisher Scientific, cat. 35050061), 0.1 mg/mL primocin (InvivoGen, cat. ant-pm-2), 10% defined fetal bovine serum, heat inactivated (HyClone Laboratories Inc., cat. SH30070.03HI), 50% L-WRN conditioned media (ATCC, cat. CRL-3276), 1.25 mM N-Acetyl-L-cysteine (Sigma-Aldrich, cat. A9165), 10 mM nicotinamide (Sigma-Aldrich, cat. N0636), 1X B-27 supplement (Thermo Fisher Scientific, cat. 17504044), 1X N-2 supplement (Thermo Fisher Scientific, cat. 17502048), 10 microM Y-27632 dihydrochloride (Tocris Bioscience, cat. 1254), and 50 ng/mL human EGF recombinant protein (Thermo Fisher Scientific, cat. PHG0311). The 485176-168-R4-J1-PDC line was cultured in Panc media, which includes all 6C/Colon 1B media components plus 100 ng/mL human FGF-10 (Thermo Fisher Scientific, cat. 100-26), 500 nM SB-431542 (Selleckchem, cat. S1067), and gastrin (Tocris, cat. 3006).
[…]

[1] = curve of first compound, second compound 0.0316 µM
[2] = curve of first compound, second compound 0.1 µM
[3] = curve of first compound, second compound 0.316 µM
[4] = curve of first compound, second compound 1 µM
[5] = curve of first compound, second compound 3.16 µM
[6] = curve of first compound, second compound 10 µM
[7] = second compound 0.0316 µM, first compound 0.0316 µM
[8] = second compound 0.0316 µM, first compound 0.316 µM
[9] = second compound 0.1 µM, first compound 0.0316 µM
[10] = second compound 0.1 µM, first compound 0.316 µM
[11] = second compound 0.316 µM, first compound 0.0316 µM
[12] = second compound 0.316 µM, first compound 0.316 µM
[13] = second compound 1 µM, first compound 0.0316 µM
[14] = second compound 1 µM, first compound 0.316 µM
[15] = second compound 3.16 µM, first compound 0.0316 µM
[16] = second compound 3.16 µM, first compound 0.316 µM
[17] = second compound 10 µM, first compound 0.0316 µM
[18] = second compound 10 µM, first compound 0.316 µM
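Also: spheroids exposed to compounds for seven days.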

In the case of O=C(NO)c1cnc(N2CCN(S(=O)(=O)c3ccc4ccccc4c3)CC2)nc1 + CN(C)c1ccc(Nc2c3ccc(NC(=O)CCN4CCCC4)cc3nc3cc(NC(=O)CCN4CCCC4)ccc23)cc1, the IC50 [1] is reported as 603 nM, the IC50 [2] is reported as 511 nM and the IC50 [3] is reported as 553 nM. For the same molecule, the IC50 [4] was 554 nM, the IC50 [5] was 475 nM and the IC50 [6] was 476 nM. It also gave a viability, T/C [7] of 111%, a viability, T/C (second compound 0.0316 µM, first compound 0.1 µM) of 91.6% and a viability, T/C [8] of 83.1%. The viability, T/C (second compound 0.0316 µM, first compound 1 µM) was 25.2%, the viability, T/C (second compound 0.0316 µM, first compound 3.16 µM) was 0.22% and the viability, T/C (second compound 0.0316 µM, first compound 10 µM) was 0.18%. For the same molecule, the viability, T/C [9] was 111%, the viability, T/C (second compound 0.1 µM, first compound 0.1 µM) was 97.7% and the viability, T/C [10] was 70.1%. The viability, T/C (second compound 0.1 µM, first compound 1 µM) was 23.5%, the viability, T/C (second compound 0.1 µM, first compound 3.16 µM) was 0.13% and the viability, T/C (second compound 0.1 µM, first compound 10 µM) was 0.14%. It also gave a viability, T/C [11] of 108%, a viability, T/C (second compound 0.316 µM, first compound 0.1 µM) of 126% and a viability, T/C [12] of 74.3%. For the same molecule, the viability, T/C (second compound 0.316 µM, first compound 1 µM) was 23.4%, the viability, T/C (second compound 0.316 µM, first compound 3.16 µM) was 0.14% and the viability, T/C (second compound 0.316 µM, first compound 10 µM) was 0.18%. It also gave a viability, T/C [13] of 107%, a viability, T/C (second compound 1 µM, first compound 0.1 µM) of 117% and a viability, T/C [14] of 73.6%. For the same molecule, the viability, T/C (second compound 1 µM, first compound 1 µM) was 24.3%, the viability, T/C (second compound 1 µM, first compound 3.16 µM) was 0.16% and the viability, T/C (second compound 1 µM, first compound 10 µM) was 0.16%. It also gave a viability, T/C [15] of 105%, a viability, T/C (second compound 3.16 µM, first compound 0.1 µM) of 103% and a viability, T/C [16] of 65.3%. For the same molecule, the viability, T/C (second compound 3.16 µM, first compound 1 µM) was 20.6%, the viability, T/C (second compound 3.16 µM, first compound 3.16 µM) was 0.14% and the viability, T/C (second compound 3.16 µM, first compound 10 µM) was 0.16%. The viability, T/C [17] was 105%, the viability, T/C (second compound 10 µM, first compound 0.1 µM) was 92.3% and the viability, T/C [18] was 65.1%. It also gave a viability, T/C (second compound 10 µM, first compound 1 µM) of 24.7%, a viability, T/C (second compound 10 µM, first compound 3.16 µM) of 0.22% and a viability, T/C (second compound 10 µM, first compound 10 µM) of 0.22%.

In the case of C#Cc1c(F)ccc2cc(O)cc(-c3ncc4c(N5CC6CCC(C5)N6)nc(OCC56CCCN5CC(F)C6)nc4c3F)c12 (stereo unspecified), the viability, T/C (compound 0.0316 µM) is reported as 107% and 94.9% and 91.9%, the viability, T/C (compound 0.1 µM) is reported as 99.2% and 99.3% and 86.2% and the viability, T/C (compound 0.316 µM) is reported as 98.2% and 95.7% and 83.9%. The viability, T/C (compound 1 µM) was 74.1% and 52.7% and 53%, the viability, T/C (compound 3.16 µM) was 35.6% and 35.4% and 33.3% and the viability, T/C (compound 10 µM) was 19.8% and 14.8% and 18.1%. The IC50 (curve of compound) was 2060 nM and 1350 nM and 1320 nM.

CC[C@@]1(O)C(=O)OCc2c1cc1n(c2=O)Cc2cc3c(CN(C)C)c(O)ccc3nc2-1 + CN(C)c1ccc(Nc2c3ccc(NC(=O)CCN4CCCC4)cc3nc3cc(NC(=O)CCN4CCCC4)ccc23)cc1 gave an IC50 [1] of 89.7 nM, an IC50 [2] of 95.5 nM and an IC50 [3] of 269 nM. For the same molecule, the IC50 [4] was 125 nM, the IC50 [5] was 153 nM and the IC50 [6] was 155 nM. The viability, T/C (second compound 0.0316 µM, first compound 0.000999 µM) was 102%, the viability, T/C (second compound 0.0316 µM, first compound 0.00316 µM) was 101% and the viability, T/C (second compound 0.0316 µM, first compound 0.00999 µM) was 101%. For the same molecule, the viability, T/C [7] was 77.5%, the viability, T/C (second compound 0.0316 µM, first compound 0.0999 µM) was 47.8% and the viability, T/C [8] was 42.5%. The viability, T/C (second compound 0.1 µM, first compound 0.000999 µM) was 99.8%, the viability, T/C (second compound 0.1 µM, first compound 0.00316 µM) was 96.7% and the viability, T/C (second compound 0.1 µM, first compound 0.00999 µM) was 103%. The viability, T/C [9] was 74.4%, the viability, T/C (second compound 0.1 µM, first compound 0.0999 µM) was 51.8% and the viability, T/C [10] was 38.8%. The viability, T/C (second compound 0.316 µM, first compound 0.000999 µM) was 96.9%, the viability, T/C (second compound 0.316 µM, first compound 0.00316 µM) was 99.6% and the viability, T/C (second compound 0.316 µM, first compound 0.00999 µM) was 89.1%. The viability, T/C [11] was 89.9%, the viability, T/C (second compound 0.316 µM, first compound 0.0999 µM) was 55.5% and the viability, T/C [12] was 49.2%. It also gave a viability, T/C (second compound 1 µM, first compound 0.000999 µM) of 99.8%, a viability, T/C (second compound 1 µM, first compound 0.00316 µM) of 103% and a viability, T/C (second compound 1 µM, first compound 0.00999 µM) of 96%. The viability, T/C [13] was 82.4%, the viability, T/C (second compound 1 µM, first compound 0.0999 µM) was 52.4% and the viability, T/C [14] was 39.3%. It also gave a viability, T/C (second compound 3.16 µM, first compound 0.000999 µM) of 102%, a viability, T/C (second compound 3.16 µM, first compound 0.00316 µM) of 90.7% and a viability, T/C (second compound 3.16 µM, first compound 0.00999 µM) of 88.5%. The viability, T/C [15] was 93.1%, the viability, T/C (second compound 3.16 µM, first compound 0.0999 µM) was 50.8% and the viability, T/C [16] was 48.6%. For the same molecule, the viability, T/C (second compound 10 µM, first compound 0.000999 µM) was 103%, the viability, T/C (second compound 10 µM, first compound 0.00316 µM) was 103% and the viability, T/C (second compound 10 µM, first compound 0.00999 µM) was 105%. The viability, T/C [17] was 109%, the viability, T/C (second compound 10 µM, first compound 0.0999 µM) was 57.4% and the viability, T/C [18] was 38%.

Source: PubChem BioAssay AID2060483 (Molecular Pharmacology Branch, DTP, NCI, 2025)
